# Earlier results as cited in US20090019042A1, “Method Of Screening Compound Regulating The Translation Of Specific mRNA” (Takeda Pharmaceutical Company Limited, priority 2004, published 2009).
# How the values were obtained:
# LysC mRNA = settings: L-lysine recognised by LysC mRNA
# xpt-pbux mRNA = settings: guanine recognised by xpt-pbux mRNA
Compound,Kd (LysC mRNA),Kd (xpt-pbux mRNA)
NCCCC[C@H](N)C(=O)O [L-lysine],1000 nM,
Nc1nc2nc[nH]c2c(=O)[nH]1 [guanine],,< 5 nM
